# Measurements: patent US20250369982A1, “METHODS OF DETECTING DDR1 PHOSPHORYLATION” (IncendiaTherapeutics, Inc., priority 2022, published 2025)
# Tested on: T47D cells
# Assay type: cell-based
# Conditions: serum-starved T47D cells, 96 hours, compared to DMSO or IgG1 controls
# Excerpt: To measure proliferation, Hoechst staining was used to stain nuclei and CellMask™ (Thermo Fisher Scientific) Deep Red was used to stain cell membranes. To measure cell death, Annexin V was used to stain phosphatidylserine on the cell surface, a marker of apoptosis, and Incucyte® Cytotox Green (Sartorius) to stain cells with compromised membrane integrity, a marker of cell death.
compound,measurement,value
CC(=O)O[C@H]1C(=O)[C@@]2(C)[C@H]([C@H](OC(=O)c3ccccc3)[C@]3(O)C[C@H](OC(=O)[C@H](O)[C@@H](NC(=O)c4ccccc4)c4ccccc4)C(C)=C1C3(C)C)[C@]1(OC(C)=O)CO[C@@H]1C[C@@H]2O [paclitaxel],"effect on cell death (Annexin V, Cytotox Green)",increased cell death
same,"effect on cell proliferation (nuclei count, total cell area)",decreased proliferation
